# Patent publication US20200009135A1, “THERAPEUTIC APPLICATIONS OF MALT1 INHIBITORS” (MEDIVIR AB, priority 2017, published 2020)
# How the values were obtained:
# [1] = tested on: IL-2 expression in Jurkat (E6-1) cells; experiment: IL-2 expression assay (down-stream MALT1 activity, Jurkat E6-1); format: cell-based; settings: Homo sapiens; Jurkat E6-1, PMA/Ionomycin stimulation, 24 hours
# Experimental: Down-stream MALT1 activity was measured by PMA/lonomycin-induced expression of IL-2 in Jurkat (E6-1) cells. Compounds were distributed in a 96 well plate, 8-point concentration series, 1:3 dilution. Jurkat clone E6-1, 4×10^4 cells/well, were added, and stimulated by PMA/lonomycin (1:500 dilution) for 24 hours at 37° C. Measurement was performed using a MesoScale Sector S600 with the Human IL-2 Tissue Culture kit according to the manufacturers recommendation.
# [2] = tested on: Treg suppression of CD4+CD25- effector T cell proliferation; experiment: Treg suppressive activity (suppression of CD4+CD25- effector T cell proliferation); format: cell-based, human
# Experimental: PBMC were isolated from fresh blood by differential density centrifugation using Ficoll-PLUS (GE Healthcare). Cells were washed three times in RPMI+1% heat-inactivated foetal calf serum (HI-FCS)+1% penicillin/streptomycin (P/S) (1% RPMI), then resuspended in PBS+2% heat inactivated foetal calf serum (HI-FCS)+2.0 mM EDTA (isolation buffer). CD4+CD25- and CD4+CD25+ T cells were isolated, per the manufacturer's instructions (Miltenyi CD4+CD25+ Regulatory T cell Isolation Kit, human). Isolated CD4+CD25− T cells were then labeled with Cell Proliferation Dye eFluor® 450 per manufacturer's instructions (eBioscience). An aliquot of cells was stained with anti-CD3 and anti-CD4 (BioLegend and eBioscience) to assess cell purity and dye labeling by flow cytometry. Cultures were plated in cRPMI, with […] CD4+CD25− cells per well. […]
# FIG. 2. The proliferation of CD4+CD25− T cells, purified from a different donor and labelled with Cell Proliferation Dye eFluor® 450, was assessed following a 4 day activation with anti-CD3/CD28 beads. There was a robust proliferation of the cells, and they were readily distinguished from unlabeled cultured cells (generated in the 10 day culture period).
# The number of proliferating CD4+CD25− “effector” T cells was determined at each ratio (1:4, 1:2, 1:1) of these cells to the cultured cells generated in the previous 10 day culture period (cultured “Treg”). […]
structure (smiles),measurement,setting,value
"CO[C@@H](C)c1c(NC(=O)Nc2cnc(-n3nccn3)c(Cl)c2)cnc2cc(Cl)nn12 [Example 2, (S)-1-(5-chloro-6-(2H-1,2,3-triazol-2-yl)pyridin-3-yl)-3-(2-chloro-7-(1-methoxyethyl)pyrazolo[1,5-a]pyrimidin-6-yl)urea]",IC50,[1],0.01 µM
same,"Treg suppression of effector cell proliferation, donor 1","[2]; donor 1, 0.4 μM, 0.4 μM and 4.0 μM",reduced
same,"Treg suppression of proliferation of responding effector T cells, donors 2 and 3","[2]; donors 2 and 3, increasing concentrations",reduced by increasing concentrations
